# Results as given in patent publication US20050089571A1, “Pharmaceutical formulation for the active ingredient budesonide” (ROEHM GMBH & CO.KG, priority 2002, published 2005).
# Assay: Release test for budesonide, USP XXIII <711> Dissolution, apparatus 2 (paddle), 100 revolutions/min
# Format: physicochemical
# Protocol: The release test for budesonide is carried out in accordance with USP XXIII monograph <711> “Dissolution” with apparatus 2 (paddle) with 100 revolutions/min in phosphate buffer of pH 7.5 according to the monograph “Intestinal Fluid, Simulated, TS” without addition of pepsin or in purified water with the paddle at 100 revolutions/min with 500 ml of dissolving medium. 400 mg of sample were weighed for each determination. Detection took place by means of HPLC with a PP 18 column, 10 cm (Phenomenex) and UV detection at 246 nm. Equipment: pump L 7000 100 (from Merck-Hitachi, Darmstadt, Germany), autosampler L 7000 200 (from Merck-Hitachi, Darmstadt, Germany) UV/VIS detector L 4250 (from Merck-Hitachi, Darmstadt, Germany). The volume injected was 100 μl, and the flow rate was 1 ml/min. The retention times averaged 2.5 min. At the end of the test, the pellets were homogenized with an Ultra Turrax for 10 min. The content was used as 100% value in the calculation. 3 to 6 tests were carried out for each medium.
# The pellets release the active ingredient under the indicated conditions in vitro as described below. At the end of the test, the pellets were homogenized using an Ultra Turrax for 10 min, and the budesonide concentration in the solution was again determined. The latter measurement was used as 100% value (theoretically possible budesonide content in the solution) in the calculation.
smiles,measurement,setting,value
"CCCC1O[C@@H]2C[C@H]3[C@@H]4CCC5=CC(=O)C=C[C@]5(C)[C@H]4[C@@H](O)C[C@]3(C)[C@]2(C(=O)CO)O1 (stereo partly shown) [Example 1, budesonide]","Release in purified water and phosphate buffer of pH 7.5, Mean",time 0 min,0.0 % of theory
same,"Release in purified water and phosphate buffer of pH 7.5, Mean",time 60 min,ca. 3.7 % of theory
same,"Release in purified water and phosphate buffer of pH 7.5, Mean",time 120 min,ca. 5.4 % of theory
same,"Release in purified water and phosphate buffer of pH 7.5, Mean",time 180 min,ca. 7.1 % of theory
